Columns and labels:
BV-2 [1] = test: Antiinflammatory activity against LPS-induced mouse BV-2 cells assessed NO production at 10 uM preincubated for 2 hrs followed by LPS-stimulation and measured after 24 hrs by Greiss reagent based assay relative to control; type: functional; conditions: time 26 hrs
BV-2 [2] = test: Cytotoxicity against mouse BV-2 cells assessed as reduction cell viability at 10 uM after 24 hrs by MTT assay; type: cell-based; conditions: bv-2, 24 h
BV-2 [3] = test: Antiinflammatory activity against LPS-induced mouse BV-2 cells assessed NO production at 1 uM preincubated for 2 hrs followed by LPS-stimulation and measured after 24 hrs by Greiss reagent based assay relative to control; type: functional; conditions: time 26 hrs
SH-SY5Y [4] = test: Cytotoxicity against human SH-SY5Y cells assessed as reduction cell viability at 1 to 10 uM after 24 hrs by MTT assay; type: cell-based; conditions: dose 1-10 µM
SH-SY5Y [5] = test: Neuroprotective activity in human SH-SY5Y cells assessed as reduction in amyloid beta (25 to 35)-induced cytotoxicity by measuring cell viability at 10 uM after 24 hrs by MTT assay relative to control; type: functional
SH-SY5Y [6] = test: Neuroprotective activity in human SH-SY5Y cells assessed as reduction in amyloid beta (25 to 35)-induced cytotoxicity by measuring cell viability at 1 uM after 24 hrs by MTT assay relative to control; type: functional
[7] = Cytotoxicity against mouse BV-2 cells assessed as cell viability at 10 uM after 24 hrs by MTT assay relative to control; type: cell-based; conditions: read-out: Activity

SMILES	Activity (BV-2 [1]) [%]	Activity (BV-2 [2])	Activity (BV-2 [3]) [%]	Activity (SH-SY5Y [4])	Activity (SH-SY5Y [5]) [%]	Activity (SH-SY5Y [6]) [%]	viability at 24 h, 10 µM [7] [%]
COc1cc(CC[C@@H](O)C[C@H](O)CCc2ccc(O)cc2)ccc1O	85.7	Non-Toxic	99.4				
COc1cc(/C=C/C=C/C(=O)CCc2ccc(O)cc2)cc(OC)c1O	77.4	Non-Toxic	96.8	Non-Toxic	81.3	66.1	
COc1cc([C@@H]2O[C@@H](CC(=O)CCc3ccc(O)cc3)[C@@H]3[C@H]2[C@H](CC(=O)CCc2ccc(O)cc2)O[C@H]3c2ccc(O)cc2)ccc1O	86.8	Non-Toxic	99.6	Non-Toxic	91.9	69.6	
O=C(CCc1ccc(O)cc1)C[C@@H]1O[C@@H](c2ccc(O)cc2)[C@H]2[C@@H]1[C@H](c1ccc(O)cc1)O[C@H]2CC(=O)CCc1ccc(O)cc1	87.8		100.9		70.9	70.7	< 70
COc1cc([C@@H]2O[C@@H](CC(=O)CCc3ccc(O)cc3)[C@@H]3[C@H]2[C@H](CC(=O)CCc2ccc(O)cc2)O[C@H]3c2ccc(O)c(OC)c2)ccc1O	85		101.4	Non-Toxic	76.3	69	< 70
COc1cc(CC[C@@H](O)C[C@H](O)CCc2ccc(O)c(OC)c2)ccc1O	84.3	Non-Toxic	101.2				
Oc1ccc2cc1Oc1ccc(cc1)CC[C@H](O)C[C@@H](O)CC2 (relative stereo)	84.6	Non-Toxic	98.8				
Oc1ccc(CC[C@@H](O)C[C@H](O)CCc2ccc(O)cc2)cc1 [(+)-HANNOKINOL]	94.8	Non-Toxic	101.9				
O=C(O[C@@H]1Cc2c(O)cc(O)cc2O[C@@H]1c1cc(O)c(O)c(O)c1)c1cc(O)c(O)c(O)c1 [EPIGALOCATECHIN GALLATE]					80.8		
Oc1ccc(/C=C/c2cc(O)cc(O)c2)cc1 [RESVERATROL]			67.5				

Reference: ChEMBL document CHEMBL4673332, “Neuroprotective and Anti-inflammatory Ditetrahydrofuran-Containing Diarylheptanoids from Tacca chantrieri” (J Nat Prod, 2020)
